From patent publication US20260184715A1, “NOVEL PYRROLO[1,2-d][1,2,4] TRIAZINONE DERIVATIVES AS NEGATIVE ALLOSTERIC MODULATORS OF MGLU7 RECEPTORS” (Neurosterix Pharma Sarl., priority 2022, published 2026)

Target: T1, human metabotropic glutamate 7 receptor (hmGlu7) (Homo sapiens, UniProt Q14831)
T1 construct: expressed in transfected cells
Assay: mGlu7 assay on HEK-expressing human mGlu7: fluorescent cell based-Ca2+ mobilization assay (FLIPR), inhibition of EC80 L-AP4 response
Settings: HEK-293 cells expressing hmGlu7, EC80 L-AP4; mean of at least three independent experiments in duplicate; read-out: Ca^2+ Flux (mean IC50)
Text: mGlu7 Assay on HEK-Expressing Human mGLU7
The cDNA encoding the human metabotropic glutamate 7 receptor (hmGlu7), (accession number NM_181874.2, NCBI Nucleotide database browser), was subcloned into an expression vector containing also the hygromycin resistance gene. In parallel, the cDNA encoding a G protein allowing redirection of the activation signal to intracellular calcium flux was subcloned into a different expression vector containing also the Puromycin resistance gene. Transfection of both these vectors into HEK293 cells with PolyFect reagent (Qiagen) according to supplier's protocol, and hygromycin and puromycin treatment allowed selection of antibiotic resistant cells which had integrated stably one or more copies of the plasmids. Positive cellular clones expressing hmGlu7 were identified in a functional assay measuring changes in calcium fluxes in response to glutamate and L-AP4 or known mGlu7 orthosteric antagonists.
HEK-293 cells expressing hmGlu7 were maintained in media containing DMEM, Fetal Bovine Serum (10%), GlutaMAX™ (2 mM), penicillin (100 units/mL), streptomycin (100 μg/mL), geneticin (100 μg/mL) and hygromycin-B (40 μg/mL) and puromycin (1 μg/mL) at 37° C. with 5% CO2 in a humidified atmosphere.
Human mGlu7 HEK-293 cells were plated out 24 hours prior to a fluorescent cell-based calcium mobilization assay using FLIPR^384 assay (Molecular Device, Sunnyvale, CA, USA) in black-walled, clear-bottomed, poly-L-ornithine-coated 384-well plates at a density of 25,000 cells/well in a glutamine/glutamate free DMEM medium containing fetal bovine serum (10%), penicillin (100 units/mL), streptomycin (100 μg/mL) and doxycyline (1 μg/ml) at 37° C. with 5% CO2 in a humidified atmosphere.
On the day of the assay, the medium was aspirated and the cells were loaded with a 3 μM solution of Fluo4-AM (LuBioScience, Lucerne, Switzerland) in 0.03% pluronic acid. After 1 hour at 37° C./5% CO2, the non incorporated dye was removed by washing cell plate with the assay buffer. All assays were performed in a pH 7.4 buffered-Solution containing 20 mM HEPES, 143 mM NaCl, 6 mM KCl, 1 mM MgSO4, 1 mM CaCl2, 0.125 mM sulfinpyrazone and 0.1% glucose.
After 10 s of basal fluorescence recording, various concentrations of the compounds of the invention were added to the cells. Changes in fluorescence levels were first monitored for 180 s in order to detect any agonist activity of the compounds. Then the cells were stimulated by an EC80 L-AP4 concentration for an additional 110 s in order to measure inhibiting activities of the compounds of the invention. EC80 L-AP4 concentration is the concentration giving 80% of the maximal glutamate response.
The concentration-response curves of L-AP4 or representative compounds of the present invention were generated using the Prism GraphPad software (Graph Pad Inc, San Diego, USA). The curves were fitted to a four-parameter logistic equation:
(Y=Bottom+(Top−Bottom)/(1+10^((Log IC50−X)*Hill Slope)
allowing determination of IC50 values.
The Table 3 below represents the mean IC50 obtained from at least three independent experiments of selected molecules performed in duplicate.

T1 sequence (Q14831 35-922 isoform Q14831-2 limits assumed): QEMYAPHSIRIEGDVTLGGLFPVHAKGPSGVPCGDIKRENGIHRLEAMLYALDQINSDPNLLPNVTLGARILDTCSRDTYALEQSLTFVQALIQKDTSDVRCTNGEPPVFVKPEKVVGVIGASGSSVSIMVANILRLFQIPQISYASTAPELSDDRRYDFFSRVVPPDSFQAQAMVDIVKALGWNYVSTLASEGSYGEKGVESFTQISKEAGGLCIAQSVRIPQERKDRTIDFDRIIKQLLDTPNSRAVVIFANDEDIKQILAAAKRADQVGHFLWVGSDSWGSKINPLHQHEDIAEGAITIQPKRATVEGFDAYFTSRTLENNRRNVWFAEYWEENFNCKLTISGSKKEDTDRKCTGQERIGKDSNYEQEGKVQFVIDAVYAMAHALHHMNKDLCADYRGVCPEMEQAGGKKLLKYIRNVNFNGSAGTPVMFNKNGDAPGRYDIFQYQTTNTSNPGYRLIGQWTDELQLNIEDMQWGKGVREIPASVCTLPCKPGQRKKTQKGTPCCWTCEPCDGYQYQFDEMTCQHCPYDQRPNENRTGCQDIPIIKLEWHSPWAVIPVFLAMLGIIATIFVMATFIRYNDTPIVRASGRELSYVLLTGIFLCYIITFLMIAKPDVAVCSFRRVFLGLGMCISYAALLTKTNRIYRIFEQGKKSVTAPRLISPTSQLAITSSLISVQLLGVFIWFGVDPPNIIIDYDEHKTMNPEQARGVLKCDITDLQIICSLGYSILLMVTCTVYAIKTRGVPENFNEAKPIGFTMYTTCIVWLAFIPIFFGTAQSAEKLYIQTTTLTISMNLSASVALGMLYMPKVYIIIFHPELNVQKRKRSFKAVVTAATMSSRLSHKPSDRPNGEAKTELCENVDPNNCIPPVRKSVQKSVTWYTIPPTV

IC50	Compound
< 100 nM	Cc1c(-c2cc3cnn(-c4ncccn4)c(=O)n3c2C)ccnc1OC1CC1 [1-145]
100 to 1000 nM	Cc1c(-c2ccnc(OC(F)F)c2)cc2cnn(-c3ccccn3)c(=O)n12 [1-146]
< 100 nM	Cc1c(-c2ccnc(OC(F)F)c2)cc2cnn(-c3ncccn3)c(=O)n12 [1-147]
